The source of these data is US20080038276A1, “INHIBITORS OF PLASMA KALLIKREIN” (Activesite Pharmaceuticals, Inc., priority 2006, published 2008).

Assay [1] addresses T1, Human plasma kallikrein (PK) (Homo sapiens, UniProt P03952).
T1 construct: purchased Haemtech Technologies (Essex Junction, Vt.)
The assay can be described thus: Inhibition of human plasma kallikrein amidolytic activity (H-D-Pro-Phe-Arg-pNA cleavage, A405). Format: biochemical. As for the experimental part:
Human plasma kallikrein (PK) was obtained from Haemtech Technologies (Essex Junction, Vt.). The enzymatic activity of PK was assayed using the synthetic peptide substrate H-D-Pro-Phe-Arg-pNA (Bachem, Inc., Switzerland) with the cleavage of the substrate by the enzyme resulting in an increase in A405, measured using a Molecular Devices Vmax Kinetic Microplate Reader. The uninhibited (control) activity of PK was determined by adding 190 μl of PK solution (1 nM in 0.05 M HEPES, pH 7.5, 0.01% Triton X-100) to 10 μl of H-D-Pro-Phe-Arg-pNA (2 mM in DMSO) in individual microtiter plate wells, mixed immediately by shaking, and the rate of increase in A405 determined over 120-180 sec. In parallel, compounds of the present invention were mixed in separate wells with the synthetic substrate to attain final concentrations of between 0.01-10 μM in the final 200 μl reaction mixture, and the reaction initiated by the addition of 190 μl of the PK solution.
(§1) The highest concentration of either compound tested was 10 μM.

In another assay the target is T2, FXIIa (Homo sapiens, UniProt P00748).
T2 sequence (P00748 373-615 limits assumed): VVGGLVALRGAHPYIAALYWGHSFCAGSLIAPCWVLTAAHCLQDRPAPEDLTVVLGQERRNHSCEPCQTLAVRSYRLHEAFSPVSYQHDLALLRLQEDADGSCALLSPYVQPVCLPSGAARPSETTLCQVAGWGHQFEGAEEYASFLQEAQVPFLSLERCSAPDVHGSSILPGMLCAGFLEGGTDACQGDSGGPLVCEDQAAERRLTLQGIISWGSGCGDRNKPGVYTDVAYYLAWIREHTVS
Put plainly: Specificity profile: amidolytic activity with synthetic substrate. Format: biochemical. As to conditions: highest concentration tested 10 μM. As for the experimental part:
as §1

Another assay addresses FXIa (Homo sapiens, UniProt P03951). The description is as above. Format: biochemical. Conditions: highest concentration tested 10 μM. The method, then: as §1
A further assay has as its target FXa (Homo sapiens, UniProt P00742). Described as above. Conditions: highest concentration tested 10 μM. Format: biochemical. As for the experimental part:
as §1

Another assay deals with T3, Plasmin (Homo sapiens, UniProt P00747).
T3 construct: agents that lead to the generation of active plasmin from plasminogen
The assay is described as above. Format: biochemical. Conditions: highest concentration tested 10 μM. As for the experimental part: as §1

For a further assay, the target named is Thrombin (Homo sapiens, UniProt P00734). The assay is described as above. Format: biochemical. As to conditions: highest concentration tested 10 μM. As for the experimental part:
as §1

The test system of assay [2] is plasmin-activated coagulation in plasma. Put plainly: Plasmin-activated coagulation of plasma (plasmin + 6.25% Actin FS), time to coagulation. Also noted: species or system human. Conditions: for prolongs time to coagulation: normal plasma; for relative coagulation time: 50% plasma, 6.25% Actin FS, control 1.00. The method, then: In the clotting paradigm utilized in Example 3, plasma is mixed 1:1 with commercially formulated Actin FS. Thus, 50% (v/v) Actin FS is the maximum amount of activator that can be added while maintaining the amount of plasma constant at 50% of the incubation mixture. Since the clotting time in normal plasma is dependent on the amount of Actin FS present in the incubation mixture, these conditions would by definition lead to the shortest time to coagulation mediated by the intrinsic pathway in this paradigm. Lowering the amount of contact activator leads to a decrease in the amount of PK activated, thus reducing the amount of thrombin generated and slowing the time to coagulation (data not shown). Therefore, in order to determine whether addition of exogenous plasmin (mimicking a fibrinolytic setting) can shorten time to coagulation, the amount of Actin FS reagent added to the plasma (kept constant at 50% of the final incubation mixture) was lowered so as to attain 6.25% (final v/v).
This provides direct evidence that plasmin can have a thrombogenic effect when added to plasma in the presence of a small amount of contact activator.
The role for PK was established by evaluating deficiencies in PK, as well as by using two specific inhibitors of the enzymes. In order to determine whether blocking PK via a specific monoclonal antibody (MAb) would also be effective in inhibiting coagulation in either of the two paradigms described here, and thus provide additional validation for the invention, MAb 13G11, which has been previously characterized as being specific for PK (Veloso et al, (1987) Blood, 70, 1053-1062), was tested in each of the coagulation paradigms described in Examples 2 and 3. MAb 13G11 (obtained from GeneTex, San Antonio, Tex.) was added at a final concentration of 0.036 mg/ml in the 50% plasma—50% activator mix in each paradigm. This calculates to an approximately 2-fold molar excess over the amount of PK that would be present in the plasma—activator mixture, based on the literature reference of Veloso et al, (1987), Blood, 70, 1053-1062. Control samples were treated with 0.036 mg/ml of an isotype-matched control IgG1 (also obtained from GeneTex). When plasma was activated using 50% Actin FS (FIG. 5), MAb 13G11 prolonged time to coagulation by 100% (45% of the maximal effect obtained with PK-deficient plasma), and, when plasma was activated using 200 nM plasmin+6.25% Actin FS (FIG. 6), prolonged time to coagulation by 32% (40% of the maximal effect obtained with PK-deficient plasma).

Another assay relates to patients with HAE. As to conditions: in vivo; cited from earlier work.
The test system of another assay is rat models of arthritis. As to conditions: in vivo; cited from earlier work.
Assay [3] has as its system LPS or bacterial induced sepsis in animals. Conditions: in vivo; cited from earlier work.
[4] abbreviates: apparent inhibition constant, 1 nM PK, pH 7.5, read-out: PK Kiapp.
[5] abbreviates: purified human PK, highest concentration tested 10 μM, read-out: Ki PK.
Where [6] appears, read: Table 4 inhibition constants, read-out: Ki.

Read-outs that look alike come from different tables or passages of the source. Square brackets hold non-standard residues; d marks the D form. * marks the point of attachment. CH2Cl = ClC*

T1 sequence (P03952 391-638 limits assumed): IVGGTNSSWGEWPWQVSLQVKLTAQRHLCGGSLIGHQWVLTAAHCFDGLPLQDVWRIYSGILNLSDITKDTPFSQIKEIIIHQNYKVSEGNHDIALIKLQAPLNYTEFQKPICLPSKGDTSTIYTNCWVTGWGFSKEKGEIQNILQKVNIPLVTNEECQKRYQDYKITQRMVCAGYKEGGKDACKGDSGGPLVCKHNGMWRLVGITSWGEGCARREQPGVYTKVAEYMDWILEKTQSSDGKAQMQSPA
T1 sequence (P03952 20-390 partner limits assumed): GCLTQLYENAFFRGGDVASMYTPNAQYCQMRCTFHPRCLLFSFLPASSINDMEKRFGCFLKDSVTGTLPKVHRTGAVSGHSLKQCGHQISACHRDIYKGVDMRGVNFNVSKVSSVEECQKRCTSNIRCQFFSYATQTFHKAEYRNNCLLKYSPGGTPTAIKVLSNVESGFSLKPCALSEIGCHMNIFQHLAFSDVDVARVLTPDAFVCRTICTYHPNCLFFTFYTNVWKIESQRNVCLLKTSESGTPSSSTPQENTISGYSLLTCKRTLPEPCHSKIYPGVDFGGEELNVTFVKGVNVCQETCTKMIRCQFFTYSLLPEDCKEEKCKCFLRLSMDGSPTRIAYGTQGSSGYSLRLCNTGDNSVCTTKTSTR
Sequence of FXIa (P03951 388-625 limits assumed): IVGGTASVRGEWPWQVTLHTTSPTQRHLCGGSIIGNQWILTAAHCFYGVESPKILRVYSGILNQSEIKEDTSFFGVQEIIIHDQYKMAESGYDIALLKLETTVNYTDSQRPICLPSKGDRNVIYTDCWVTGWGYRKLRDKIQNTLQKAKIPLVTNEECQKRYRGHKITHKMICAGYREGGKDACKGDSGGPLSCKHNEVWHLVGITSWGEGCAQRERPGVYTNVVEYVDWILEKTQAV
Sequence of FXIa (P03951 19-387 partner limits assumed): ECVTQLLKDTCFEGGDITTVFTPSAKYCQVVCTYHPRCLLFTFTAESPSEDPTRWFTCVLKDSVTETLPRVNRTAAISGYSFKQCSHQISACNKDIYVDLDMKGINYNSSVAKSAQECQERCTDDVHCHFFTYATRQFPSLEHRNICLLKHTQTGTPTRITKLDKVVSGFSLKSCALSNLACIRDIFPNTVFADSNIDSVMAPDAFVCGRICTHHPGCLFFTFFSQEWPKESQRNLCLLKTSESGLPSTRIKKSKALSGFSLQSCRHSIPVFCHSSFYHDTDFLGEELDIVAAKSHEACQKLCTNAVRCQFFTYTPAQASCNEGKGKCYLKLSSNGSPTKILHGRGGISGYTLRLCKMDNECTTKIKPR
Sequence of FXa (P00742 235-488 limits assumed): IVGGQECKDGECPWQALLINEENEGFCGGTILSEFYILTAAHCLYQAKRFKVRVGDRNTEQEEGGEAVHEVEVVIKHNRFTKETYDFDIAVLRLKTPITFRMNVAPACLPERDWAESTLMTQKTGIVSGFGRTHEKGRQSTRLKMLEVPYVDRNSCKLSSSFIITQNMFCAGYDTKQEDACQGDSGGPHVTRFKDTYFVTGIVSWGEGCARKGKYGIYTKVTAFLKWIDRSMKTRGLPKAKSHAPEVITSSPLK
Sequence of FXa (P00742 41-179 partner limits assumed): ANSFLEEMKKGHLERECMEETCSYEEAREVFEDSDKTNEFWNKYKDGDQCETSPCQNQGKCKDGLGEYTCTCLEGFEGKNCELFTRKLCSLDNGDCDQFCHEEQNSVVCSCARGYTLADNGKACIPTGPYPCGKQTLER

`N=C(N)c1ccc(CNC(=O)c2cnn(Cc3ccccc3)c2)cc1` [ASP-440, 1-Benzyl-1H-pyrazole-4-carboxylic acid 4-carbamimidoyl-benzylamide]: the Ki in assay [1] (setting [4]) was 310 nM; in assay [1] (setting [5]), 90 nM; on FXIIa, > 10000 nM; on FXIa, > 10000 nM; on FXa, > 10000 nM; on Plasmin it was > 10000 nM. In addition, on Thrombin, the Ki was > 10000 nM. For the same molecule, the “prolongs time to coagulation” value in assay [2] (200 nM plasmin, compound 10 μM) was found to be 36%.
As to `Cc1cc(C(=O)NCc2ccc(C(=N)N)cc2)c(C)n1Cc1ccncc1` [ASP-465, 2,5-Dimethyl-1-pyridin-4-ylmethyl-1H-pyrrole-3-carboxylic acid 4-carbamimidoyl-benzylamide], the Ki in assay [1] (setting [4]) was 80 nM; in assay [1] (setting [5]), 30 nM; at FXIIa, > 10000 nM; on FXIa, > 10000 nM; on FXa it was > 10000 nM; on Plasmin, > 10000 nM. For the same molecule, the Ki at Thrombin is > 10000 nM. The “potency (Ki) towards PK relative to ASP-440” value in [1] (ratio of Ki values) amounted to 3 fold. Moreover, the “block of the plasmin-induced shortening of time to coagulation attributable to PK” value in [2] (10 μM) was “almost completely blocks”. Further, the “prolongs time to coagulation” value in assay [2] (200 nM plasmin, compound 3.3 or 10 μM) is reported as 36-75%. Moreover, the “potency towards inhibiting plasmin-activated coagulation relative to ASP-440” value in assay [2] (same prolongation at 3.3 μM as ASP-440 at 10 μM) worked out at 3 fold.
On to `Cc1nn(Cc2ccccc2Cl)c(C)c1C(=O)NCc1ccc(C(=N)N)cc1` [ASP-578, 1-(2-Chloro-benzyl)-3,5-dimethyl-1H-pyrazole-4-carboxylic acid 4-carbamimidoyl-benzylamide], for which, in assay [1] (setting [4]), the Ki is 1640 nM.
Still for that read-out and setting: with `Cc1nn(Cc2c(Cl)cccc2Cl)c(Cl)c1C(=O)NCc1ccc(C(=N)N)cc1` [ASP-579, 5-Chloro-1-(2,6-dichloro-benzyl)-3-methyl-1H-pyrazole-4-carboxylic acid 4-carbamimidoyl-benzylamide] the figure was 1190 nM; with `Cc1cc(C(=O)NCc2ccc(C(=N)N)cc2)c(C)n1Cc1ccccc1` [ASP-580, 1-Benzyl-2,5-dimethyl-1H-pyrrole-3-carboxylic acid 4-carbamimidoyl-benzylamide], 30 nM.
Take `Cc1cc(C(=O)NCc2ccc(C(=N)N)cc2)c(C)n1CC(F)(F)F` [ASP-581, 2,5-Dimethyl-1-(2,2,2-trifluoro-ethyl)-1H-pyrrole-3-carboxylic acid 4-carbamimidoyl-benzylamide]: the Ki in [1] (setting [4]) is 410 nM.
The same measure, in the same setting: as for `N=C(N)c1ccc(CNC(=O)c2cnn(Cc3ccccc3Cl)c2)cc1` [ASP-582, 1-(2-Chloro-benzyl)-1H-pyrazole-4-carboxylic acid 4-carbamimidoyl-benzylamide], the figure is 470 nM.
Regarding `Cc1nn(Cc2ccc(F)cc2)c(Cl)c1C(=O)NCc1ccc(C(=N)N)cc1` [ASP-583, 5-Chloro-1-(4-fluoro-benzyl)-3-methyl-1H-pyrazole-4-carboxylic acid 4-carbamimidoyl-benzylamide], the Ki in assay [1] (setting [4]) was determined as 2380 nM.
With `NC(N)=NCCC[C@@H](N)C(=O)N[C@@H](CCCN=C(N)N)C(=O)N1CCC[C@H]1C(=O)N1C[C@H](O)C[C@H]1C(=O)NCC(=O)N[C@@H](Cc1cccs1)C(=O)N[C@@H](CO)C(=O)N1Cc2ccccc2C[C@@H]1C(=O)N1[C@H](C(=O)N[C@@H](CCCN=C(N)N)C(=O)O)C[C@@H]2CCCC[C@@H]21` [Icatibant], the “treating HAE” value in the assay with patients with HAE was “effective”.
On to `Cl.NCC1CCC(C(=O)N[C@@H](Cc2ccccc2)C(=O)Nc2ccc(CC(=O)O)cc2)CC1` (stereo partly drawn) [PKSI-527], for which, in the assay on rat models of arthritis, the joint swelling entry is on record as “reduce”.
Regarding `N=C(N)c1ccc(CNC(=O)c2cn(Cc3ccccc3)c3ccccc23)cc1` [compound 1], the Ki in assay [1] (setting [6]) amounted to 80 nM.
Same read-out and setting: with `N=C(N)c1ccc(CNC(=O)c2cnn(-c3ccccc3)c2)cc1` [compound 4] the figure was 1000 nM.
Turning to “H-[dP]-Phe-Arg-CH2Cl [reference compound]”, in [3], the “vascular permeability in multiple organs and lesions” value was “reduce”.

B1: plasmin: exogenous plasmin added to plasma, mimicking a fibrinolytic setting (protein, UniProt P00747 20-580; P00747 581-810, looked up)
Plasmin heavy chain A: EPLDDYVNTQGASLFSVTKKQLGAGSIEECAAKCEEDEEFTCRAFQYHSKEQQCVIMAENRKSSIIIRMRDVVLFEKKVYLSECKTGNGKNYRGTMSKTKNGITCQKWSSTSPHRPRFSPATHPSEGLEENYCRNPDNDPQGPWCYTTDPEKRYDYCDILECEEECMHCSGENYDGKISKTMSGLECQAWDSQSPHAHGYIPSKFPNKNLKKNYCRNPDRELRPWCFTTDPNKRWELCDIPRCTTPPPSSGPTYQCLKGTGENYRGNVAVTVSGHTCQHWSAQTPHTHNRTPENFPCKNLDENYCRNPDGKRAPWCHTTNSQVRWEYCKIPSCDSSPVSTEQLAPTAPPELTPVVQDCYHGDGQSYRGTSSTTTTGKKCQSWSSMTPHRHQKTPENYPNAGLTMNYCRNPDADKGPWCFTTDPSVRWEYCNLKKCSGTEASVVAPPPVVLLPDVETPSEEDCMFGNGKGYRGKRATTVTGTPCQDWAAQEPHRHSIFTPETNPRAGLEKNYCRNPDGDVGGPWCYTTNPRKLYDYCDVPQCAAPSFDCGKPQVEPKKCPGR
Plasmin light chain B: VVGGCVAHPHSWPWQVSLRTRFGMHFCGGTLISPEWVLTAAHCLEKSPRPSSYKVILGAHQEVNLEPHVQEIEVSRLFLEPTRKDIALLKLSSPAVITDKVIPACLPSPNYVVADRTECFITGWGETQGTFGAGLLKEAQLPVIENKVCNRYEFLNGRVQSTELCAGHLAGGTDSCQGDSGGPLVCFEKDKYILQGVTSWGLGCARPNKPGVYVRVSRFVTWIEGVMRNN
modifications: Plasmin
notes: exogenous plasmin added to plasma, mimicking a fibrinolytic setting
For the molecule B1, the relative coagulation time in assay [2] (100 nM plasmin) came out at 0.74; in assay [2] (200 nM plasmin), 0.65. In addition, in assay [2] (200 nM plasmin, absence of any Actin FS), the “relative time to coagulation” value stood at 4.0.
